# Reference: publication PMC8672713 (Chemical Science, 2021)
# pIC50: −log10 of the molar value.
# Molecular target: SARS-CoV-2 Mpro (Severe acute respiratory syndrome coronavirus 2, UniProt P0DTD1)
# Type: biochemical
smiles,measurement,value
O=C(NC[C@H](NC(=O)c1cncc2sccc12)c1ccc2ccccc2c1)c1cocn1 [Z4921678803],pIC50,4.92
Cc1cncc(C(=O)NC[C@H]2c3ccccc3CCN2C(=O)c2cccn3nnnc23)c1 [Z4921675438],pIC50,4.96
O=C(NC[C@@H]1CC2(CCC2)CN1C(=O)c1ccc(F)c(O)c1)c1cncc2ccccc12 [Z4927220858],pIC50,4.95
